# Results as given in US7820594B2 (priority 2003, dated 2010).
# “And” between values parts separate entries of the source, which are not always exact repeats. Equal values may be shown once. Read-outs that look alike come from different tables or passages of the source.
# What was measured:
# Botrytis cinerea [1] = test: PDA plate inhibition, caprylic acid and organic acids (Example 13); type: cell-based
# Experimental: (§1) Potato dextrose agar (PDA) plates, +/−amendments, were inoculated with selected pathogens. There were several replicate plates used per treatment group (per pathogen tested). After incubation of plates at room temperature, fungal growth was measured.
# White mold [2] = test: as above; type: cell-based
# Experimental: as §1
# Botrytis cinerea [3] = test system: Botrytis cinerea
# White mold [4] = type: cell-based
# Septoria = type: cell-based
# Late blight = type: cell-based
smiles,measurement,setting,value
"CCNCC.O=C(O)c1ccccc1O [0.010% diethylamine salicylate, diethylamine salicylate]",Inhibition (%) of Botrytis cinerea,Botrytis cinerea [1],0%
same,Inhibition (%) of white mold,White mold [2],7%
"O=C(O)C(O)C(O)C(=O)O (centres unmarked) [0.75% tartaric acid, tartaric acid]",Infected berries (% of total),Botrytis cinerea [3]; Day 2 after treatment,31%
same,Infected berries (% of total),Botrytis cinerea [3]; Day 3 after treatment,58%
"O=C(O)CO [0.0175% glycolic acid, glycolic acid]","Measurement of fungal growth, based on control plate (100%)",White mold [4],127% and 108%
same,"Measurement of fungal growth, based on control plate (100%)",Septoria,80% and 90%
same,"Measurement of fungal growth, based on control plate (100%)",Late blight; Day 2 after inoculum,79%
same,"Measurement of fungal growth, based on control plate (100%)",Late blight; Day 3 after inoculum,104%
